Data taken from ChEMBL document CHEMBL5532637, “Antimicrobial activity of natural and semi-synthetic carbazole alkaloids” (Eur J Med Chem, 2023).
In brackets after ≈: the same amount, converted by molar mass.

How the values were obtained:
Aspergillus fumigatus = assay: Antifungal activity against Aspergillus fumigatus assessed as inhibition of fungal growth by serial dilution method; format: functional
Cryptococcus neoformans = assay: Antifungal activity against Cryptococcus neoformans assessed as inhibition of fungal growth by serial dilution method; format: functional
Nannizzia gypsea = assay: Antifungal activity against Microsporum gypseum assessed as inhibition of fungal growth by serial dilution method; format: functional
Staphylococcus aureus [1] = assay: Antibacterial activity against Staphylococcus aureus assessed as inhibition of bacterial growth incubated for 24 hrs; format: functional
Caulobacter vibrioides = assay: Antibacterial activity against Caulobacter crescentus assessed as inhibition of bacterial growth incubated for 24 hrs; format: functional
Escherichia coli [2] = assay: Antibacterial activity against Escherichia coli expressing recombinant blaNDM-1 gene assessed as inhibition of bacterial growth incubated for 20 hrs by broth microdilution method; format: functional
Staphylococcus aureus [3] = assay: Antibacterial activity against methicillin-resistant Staphylococcus aureus assessed as inhibition of bacterial growth incubated for 20 hrs by broth microdilution method; format: functional
Escherichia coli [4] = assay: Antibacterial activity against Escherichia coli expressing blaNDM-1 gene assessed as inhibition of bacterial growth incubated for 20 hrs by broth microdilution method; format: functional
Escherichia coli [5] = assay: Antibacterial activity against wild type Escherichia coli assessed as inhibition of bacterial growth incubated for 20 hrs by broth microdilution method; format: functional
Bacillus subtilis [6] = assay: Antibacterial activity against Bacillus subtilis assessed as inhibition of bacterial growth incubated for 20 hrs by broth microdilution method; format: functional
Klebsiella pneumoniae = assay: Antibacterial activity against Klebsiella pneumoniae assessed as inhibition of bacterial growth incubated for 20 hrs by broth microdilution method; format: functional
Staphylococcus aureus [7] = assay: Antibacterial activity against wild type Staphylococcus aureus assessed as inhibition of bacterial growth incubated for 20 hrs by broth microdilution method; format: functional
Moraxella catarrhalis = assay: Antibacterial activity against Moraxella catarrhalis ATCC 43617 assessed as inhibition of bacterial growth by microdilution assay; format: functional
Enterococcus faecium = assay: Antibacterial activity against Enterococcus faecium BM 4147 assessed as inhibition of bacterial growth by microdilution assay; format: functional
Bacillus subtilis [8] = assay: Antibacterial activity against Bacillus subtilis 168 assessed as inhibition of bacterial growth by microdilution assay; format: functional
Staphylococcus aureus [9] = assay: Antibacterial activity against Staphylococcus aureus ATCC 29213 assessed as inhibition of bacterial growth by microdilution assay; format: functional
Staphylococcus simulans = assay: Antibacterial activity against Staphylococcus simulans 22 assessed as inhibition of bacterial growth by microdilution assay; format: functional
Candida albicans [10] = assay: Antimicrobial activity against Candida albicans assessed as inhibition of microbial growth incubated for 18 to 20 hrs by broth microdilution method; format: functional; details: time 18-20 hrs
[11] = system: Mycolicibacterium smegmatis; assay: Antimicrobial activity against Mycobacterium smegmatis assessed as inhibition of microbial growth incubated for 18 to 20 hrs by broth microdilution method; format: functional; details: time 18-20 hrs
Staphylococcus aureus [12] = assay: Antimicrobial activity against methicillin-resistant Staphylococcus aureus assessed as inhibition of microbial growth incubated for 18 to 20 hrs by broth microdilution method; format: functional; details: time 18-20 hrs
Bacillus mycoides = assay: Antimicrobial activity against Bacillus mycoides assessed as inhibition of microbial growth incubated for 18 to 20 hrs by broth microdilution method; format: functional; details: time 18-20 hrs
Staphylococcus aureus [13] = assay: Antibacterial activity against Staphylococcus aureus assessed as zone of inhibition incubated for 24 hrs by disk diffusion method; format: functional
Pseudomonas aeruginosa = assay: Antibacterial activity against Pseudomonas aeruginosa assessed as zone of inhibition incubated for 24 hrs by disk diffusion method; format: functional
Staphylococcus aureus [14] = assay: Antibacterial activity against methicillin-resistant Staphylococcus aureus assessed as inhibition of bacterial growth incubated for 24 hrs by two-fold serial dilution assay; format: functional
Staphylococcus aureus [15] = assay: Antibacterial activity against methicillin-sensitive Staphylococcus aureus assessed as inhibition of bacterial growth incubated for 24 hrs by two-fold serial dilution assay; format: functional
Candida albicans [16] = assay: Antifungal activity against Candida albicans SC5314 assessed as inhibition of fungal growth incubated for 24 hrs by microtiter plate reader assay; format: functional
Bacillus subtilis [17] = assay: Antibacterial activity against Bacillus subtilis assessed as inhibition of bacterial growth; format: functional
Staphylococcus aureus [18] = assay: Antibacterial activity against Staphylococcus aureus assessed as inhibition of bacterial growth; format: functional, organism-based
Staphylococcus aureus [19] = assay: Antimicrobial activity against Staphylococcus aureus assessed as inhibition of microbial growth incubated for 18 hrs by agar diffusion method; format: functional
Staphylococcus aureus [20] = assay: Antimicrobial activity against methicillin-resistant Staphylococcus aureus assessed as inhibition of microbial growth incubated for 18 hrs by agar diffusion method; format: functional
Staphylococcus aureus [21] = assay: Antimicrobial activity against Staphylococcus aureus NCIM 2120 assessed as zone of inhibition incubated for 24 hrs by agar diffusion method; format: functional
Candida albicans [22] = assay: Antimicrobial activity against Candida albicans assessed as zone of inhibition incubated for 24 hrs by agar diffusion method; format: functional
Escherichia coli [23] = assay: Antimicrobial activity against Escherichia coli NCIM 2065 assessed as zone of inhibition incubated for 24 hrs by agar diffusion method; format: functional
Proteus vulgaris = assay: Antimicrobial activity against Proteus vulgaris NCIM 2813 assessed as zone of inhibition incubated for 24 hrs by agar diffusion method; format: functional
[24] = Cytotoxicity against green monkey Vero cells; format: toxicity, cell-based; details: green monkey (Chlorocebus sabaeus)
[25] = system: Mycobacterium tuberculosis; assay: Antibacterial activity against Mycobacterium tuberculosis H37Rv assessed as inhibition of bacterial growth by two-fold serial dilution method; format: functional

Cc1ccc2c(c1)c1c(n2CCCNCc2ccccc2)CCCC1
MIC80 (Aspergillus fumigatus): 32 µg/mL (≈ 96.2 µM) | MIC80 (Cryptococcus neoformans): 1 µg/mL (≈ 3.01 µM) | MIC80 (Nannizzia gypsea): 0.016 µg/mL (≈ 0.0481 µM)

OCC(CO)(CO)NCC(O)Cn1c2ccc(Cl)cc2c2cc(Cl)ccc21 (stereo unspecified)
MIC (Staphylococcus aureus [1]): 50 µM (≈ 20.7 µg/mL) | MIC (Caulobacter vibrioides): 15 µM (≈ 6.2 µg/mL)

Fc1cc(F)c2c(c1)[nH]c1ccc(F)cc12
MIC (Escherichia coli [2]): 1.5 µg/mL | MIC (Staphylococcus aureus [3]): 1.5 µg/mL (≈ 6.78 µM) | MIC (Escherichia coli [4]): 1.5 µg/mL (≈ 6.78 µM) | MIC (Escherichia coli [5]): 1.5 µg/mL (≈ 6.78 µM) | MIC (Bacillus subtilis [6]): 1.5 µg/mL (≈ 6.78 µM) | MIC (Klebsiella pneumoniae): 1.5 µg/mL (≈ 6.78 µM) | MIC (Staphylococcus aureus [7]): 1.5 µg/mL (≈ 6.78 µM)

c1ccc(CCNC2CCCc3c2[nH]c2ccc(C4CCCCC4)cc32)cc1 (stereo unspecified)
MIC (Moraxella catarrhalis): 1 µg/mL (≈ 2.68 µM) | MIC (Enterococcus faecium): 2 µg/mL (≈ 5.37 µM) | MIC (Bacillus subtilis [8]): 2 µg/mL (≈ 5.37 µM) | MIC (Staphylococcus aureus [9]): 2 µg/mL (≈ 5.37 µM) | MIC (Staphylococcus simulans): 2 µg/mL (≈ 5.37 µM)

COc1ccc2[nH]c3c(O)cccc3c2c1Cl
MIC (Candida albicans [10]): 32 µg/mL | MIC [11]: 32 µg/mL | MIC (Staphylococcus aureus [12]): 32 µg/mL | MIC (Bacillus mycoides): 32 µg/mL

CCOc1nc2c(c(-c3cccs3)c1C(N)=O)CCc1c-2[nH]c2ccc(Cl)cc12
inhibition zone (IZ) (Staphylococcus aureus [13]): 1.1 cm | inhibition zone (IZ) (Pseudomonas aeruginosa): 2.1 cm

N#Cc1ccc2c(c1)[nH]c1c(-c3c[nH]c4ccc(C#N)cc34)ccc(-c3c[nH]c4ccc(C#N)cc34)c12
MIC (Staphylococcus aureus [14]): 8 µg/mL (≈ 16.9 µM) | MIC (Staphylococcus aureus [15]): 16 µg/mL (≈ 33.9 µM)

Clc1ccc2[nH]c3c(c2c1)CCCC3NCc1ccc(-c2ccccc2)cc1 (stereo unspecified)
MIC50 (Candida albicans [16]): 6.8 µM (≈ 2.63 µg/mL)

COC12C(=O)N(C)C(=O)C1(OC)c1c([nH]c3cc(Cl)ccc13)-c1[nH]c3cc(Cl)ccc3c12 (stereo unspecified)
MIC (Bacillus subtilis [17]): 3.1 µg/mL (≈ 6.59 µM) | MIC (Staphylococcus aureus [18]): 3.1 µg/mL (≈ 6.59 µM)

CC(C)=CC1OC(=O)c2cc(O)c3[nH]c4ccccc4c3c21 (stereo unspecified)
MIC (Staphylococcus aureus [19]): 64 µg/mL | MIC (Staphylococcus aureus [20]): 64 µg/mL

Cn1c2ccccc2c2cc(/C=C/C(=O)c3ccc([N+](=O)[O-])cc3)ccc21
inhibition zone (IZ) (Staphylococcus aureus [21]): 4.5 mm | inhibition zone (IZ) (Candida albicans [22]): 5 mm | inhibition zone (IZ) (Escherichia coli [23]): 2.5 mm | inhibition zone (IZ) (Proteus vulgaris): 4 mm

COc1ccc2[nH]c3c(OCc4ccccc4)cc(C)cc3c2c1
IC50 [24]: > 128 µM | MIC90 [25]: 31.7 µg/mL (≈ 99.9 µM)
